In patent US12459921B2, “Isoindoline compound, preparation method, pharmaceutical composition and use thereof” (SHANGHAI INSTITUTE OF MATERIA MEDICA, CHINESE ACADEMY OF …, priority 2018, dated 2025):

system: MM.1S cells; test: Inhibitory effect on the proliferation of MM.1S, MTS cell viability test; format: cell-based; details: Homo sapiens, MM1.S, 168 h, multiple myeloma MM.1S cells, 7 days incubation, read-out: Tumor cell inhibitory activity
Procedure, shortened: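 Viability measured by MTS (OD490 minus OD690 background, 3-4 h) after a 7-day exposure of 20,000 MM.1S cells/well to 5-fold serially diluted compound, 0.2% DMSO final. Inhibition calculated relative to DMSO wells; IC50 curve-fitted, averaged over three repeats.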

| Structure (SMILES) | IC50 |
| --- | --- |
| N#CC1(c2cccc(F)c2)CCN(CCCOc2cccc3c2CN(C2CCC(=O)NC2=O)C3=O)CC1 (centres unmarked) [Example 63, 1-(3-((2-(2,6-dioxopiperidine-3-)-1-oxoisoindoline-4-)oxy)propyl)-4-(3-fluorophenyl)piperidine-4-carbonitrile] | 100 to 1000 nM |
| O=C1CCC(N2Cc3c(OCCCCC(=O)N4CCCc5ccccc54)cccc3C2=O)C(=O)N1 (centres unmarked) [Example 119, 3-(4-((5-(3,4-dihydroquinoline-1(2H)-)-5-oxopentyl)oxy)-1-oxoisoindoline-2-)piperidine-2,6-dione] | < 100 nM |
| O=C1CCC(N2Cc3c(CCCCCN4CCN(c5cccc(Cl)c5Cl)CC4)cccc3C2=O)C(=O)N1 (centres unmarked) [Example 26, 3-(4-(5-(4-(2,3-dichlorophenyl)piperazine-1-)pentyl)-1-oxoisoindoline-2-)piperidine-2,6-dione] | < 100 nM |
| O=C1CCC(N2Cc3c(OCCCCCOc4ccnc5ccccc45)cccc3C2=O)C(=O)N1 (centres unmarked) [Example 12, 3-(1-oxo-4-((5-(quinoline-4-oxy)pentyl)oxy)isoindoline-2-)piperidine-2,6-dione] | 100 to 1000 nM |
| N#CC1(c2ccccc2Cl)CCN(CCCOc2cccc3c2CN(C2CCC(=O)NC2=O)C3=O)CC1 (centres unmarked) [Example 55, 4-(2-chlorophenyl)-1-(3-((2-(2,6-dioxopiperidine-3-)-1-oxoisoindoline-4-)oxy)propyl)piperidine-4-carbonitrile] | < 100 nM |
| O=C1CCC(N2Cc3c(CCCCCN4CCCCc5ccccc54)cccc3C2=O)C(=O)N1 (centres unmarked) [Example 111, 3-(1-oxo-4-(5-(2,3,4,5-tetrahydro-TH-benzo[b]azepine-1-)pentyl)isoindoline-2-)piperidine-2,6-dione] | 100 to 1000 nM |
| O=C1CCC(N2Cc3c(CCCCCN4CCC5(CC4)COc4ccccc45)cccc3C2=O)C(=O)N1 (centres unmarked) [Example 145] | 100 to 1000 nM |
| O=C1CCC(N2Cc3c(OCCCCN4CCN(c5ccc(Cl)c(Cl)c5)CC4)cccc3C2=O)C(=O)N1 (centres unmarked) [Example 243, 3-(4-(4-(4-(3,4-dichlorophenyl)piperazine-1-yl)butoxy)-1-oxoisoindoline-2-yl)piperidine-2,6-dione] | 100 to 1000 nM |
| N#CC1(c2cccc(Cl)c2)CCN(CCCOc2cccc3c2CN(C2CCC(=O)NC2=O)C3=O)CC1 (centres unmarked) [Example 57, 4-(3-chlorophenyl)-1-(3-((2-(2,6-dioxopiperidine-3-)-1-oxoisoindoline-4-)oxy)propyl)piperidine-4-carbonitrile] | < 100 nM |
| O=C1CCC(N2Cc3c(OCCCN4CCN(c5cccc(Cl)c5Cl)CC4)cccc3C2=O)C(=O)N1 (centres unmarked) [Example 238, 3-(4-(3-(4-(2,3-dichlorophenyl)piperazine-1-yl)propoxy)-1-oxoisoindoline-2-yl)piperidine-2,6-dione] | 100 to 1000 nM |
| CC(=O)N[C@@H](CCCc1cccc2c1CN(C1CCC(=O)NC1=O)C2=O)C(=O)N[C@H]1CCCc2ccccc21 (stereo partly drawn) [Example 179, (2S)-2-acetylamino-5-(2-(2,6-dioxopiperidine-3-)-1-oxoisoindoline-4-)-N—((S)-1,2,3,4-tetrahydronaphthyl-1-)pentanamide] | < 100 nM |
| O=C1CCC(N2Cc3c(CCCCN4CCC5(CC4)OCc4ccccc45)cccc3C2=O)C(=O)N1 (centres unmarked) [Example 149, 3-(4-(4-(3H-spiro[isobenzofuran-1,4′-piperidine]-1′-)butyl)-1-oxoisoindoline-2-)piperidine-2,6-dione] | 100 to 1000 nM |
| COc1ccc(C2(C#N)CCN(CCCCc3cccc4c3CN(C3CCC(=O)NC3=O)C4=O)CC2)c(OC)c1OC (centres unmarked) [Example 253, 1-(4-(2-(2,6-dioxopiperidin-3-yl)-1-oxoisoindolin-4-yl)butyl)-4-(2,3,4-trimethoxyphenyl)piperidine-4-carbonitrile] | 1000 to 20000 nM |
| Cc1ccc(NC(=O)[C@H](CCCc2cccc3c2CN(C2CCC(=O)NC2=O)C3=O)NC(=O)C2CCNCC2)cc1Cl (stereo partly drawn) [Example 191, N-((2S)-1-((3-chloro-4-methylphenyl)amino)-5-(2-(2,6-dioxopiperidine-3-) -1-oxoisoindoline-4-)-1-oxopentyl-2-)piperidine-4-carboxamide] | 100 to 1000 nM |
| O=C1CCC(N2Cc3c(CCCCCN4CCN(c5cc(Cl)ccc5Cl)CC4)cccc3C2=O)C(=O)N1 (centres unmarked) [Example 233, 3-(4-(5-(4-(2,5-dichlorophenyl)piperazine-1-yl)pentyl)-1-oxoisoindoline-2-yl) piperidine-2,6-dione] | 100 to 1000 nM |
| N#CC1(c2ccc(Cl)cc2)CCN(CCCCCc2cccc3c2CN(C2CCC(=O)NC2=O)C3=O)CC1 (centres unmarked) [Example 49, 4-(4-chlorophenyl)-1-(5-(2-(2,6-dioxopiperidine-3-)-1-oxoisoindoline-4-)pentyl) piperidine-4-carbonitrile] | < 100 nM |
| CC(=O)N[C@@H](CCCc1cccc2c1CN(C1CCC(=O)NC1=O)C2=O)C(=O)N[C@H]1CCc2ccccc21 (some centres unmarked) [Example 175] | 100 to 1000 nM |
| COc1ccc(C2(C#N)CCN(CCCCc3cccc4c3CN(C3CCC(=O)NC3=O)C4=O)CC2)c(Cl)c1 (centres unmarked) [Example 245, 4-(2-chloro-4-methoxyphenyl)-1-(4-(2-(2,6-dioxopiperidine-3-yl)-1-oxoisoindoline-4-yl)butyl)piperidine-4-carbonitrile] | 100 to 1000 nM |

| Structure (SMILES) | IC50 |
| --- | --- |
| C[C@]1(N2C(=O)c3cccc(OCCCN4CCC(C#N)(c5cccc(OC(F)(F)F)c5)CC4)c3C2=O)CCC(=O)NC1=O [Example 62, (S)-1-(3-((2-(3-methyl-2,6-dioxopiperidine-3-)-1,3-dioxoisoindoline-4-)oxy)propyl)-4-(3-(trifluoromethoxy)phenyl)piperidine-4-carbonitrile] | 1000 to 20000 nM |
| O=C1CCC(N2Cc3c(CCCCN4CCN(c5cccc(Cl)c5)CC4)cccc3C2=O)C(=O)N1 (centres unmarked) [Example 37, 3-(4-(4-(4-(3-chlorophenyl)piperazine-1-)butyl)-1-oxoisoindoline-2-)piperidine-2,6-dione] | < 100 nM |
| C[C@]1(N2C(=O)c3cccc(OCCCN4CCC(C#N)(c5cccc(Cl)c5)CC4)c3C2=O)CCC(=O)NC1=O [Example 54, (S)-4-(3-chlorophenyl)-1-(3-((2-(3-methyl-2,6-dioxopiperidine-3-)-1,3-dioxoisoindoline-4-)oxy)propyl)piperidine-4-carbonitrile] | 1000 to 20000 nM |
| O=C1CCC(N2Cc3c(OCCCCN4CCC5(CC4)OCc4ccccc45)cccc3C2=O)C(=O)N1 (centres unmarked) [Example 126, 3-(4-(4-(2H-spiro[benzofuran-3,4′-piperidine]-1′-)butoxy)-1-oxoisoindoline-2-)piperidine-2,6-dione] | < 100 nM |
| N#CC1(c2ccccc2OC(F)(F)F)CCN(C(=O)CCCOc2cccc3c2CN(C2CCC(=O)NC2=O)C3=O)CC1 (centres unmarked) [Example 90, 1-(4-((2-(2,6-dioxopiperidine-3-)-1-oxoisoindoline-4-)-oxy-)butyryl)-4-(2-trifluoromethoxyphenyl)piperidine-4-carbonitrile] | 1000 to 20000 nM |
| N#CC1(c2ccccc2Cl)CCN(CCCCCc2cccc3c2CN(C2CCC(=O)NC2=O)C3=O)CC1 (centres unmarked) [Example 92, 4-(2-chlorophenyl)-1-(5-(2-(2,6-oxopiperidine-3-)-1-oxoisoindoline-4-)pentyl)piperidine-4-carbonitrile] | < 100 nM |
| O=C1CCC(N2Cc3c(CCCCCOc4cc(C(F)(F)F)nc5ccccc45)cccc3C2=O)C(=O)N1 (centres unmarked) [Example 13, 3-(1-oxo-4-(5-((2-(trifluoromethyl)quinoline-4-)oxy)pentyl)isoindoline-2-)piperidine-2,6-ditone] | < 100 nM |
| N#CC1(c2cc(Cl)cc(Cl)c2)CCN(CCCCCc2cccc3c2CN(C2CCC(=O)NC2=O)C3=O)CC1 (centres unmarked) [Example 251, 4-(3,5-dichlorophenyl)-1-(5-(2-(2,6-dioxopiperidin-3-yl)-1-oxoisoindoline-4-yl)pentyl)piperidine-4-carbonitrile] | 100 to 1000 nM |
| COc1ccc(C2(C#N)CCN(CCCCCc3cccc4c3CN(C3CCC(=O)NC3=O)C4=O)CC2)cc1 (centres unmarked) [Example 265, 1-(5-(2-(2,6-dioxopiperidin-3-yl)-1-oxoisoindolin-4-yl)pentyl)-4-(4-methoxyphenyl)piperidine-4-carbonitrile] | 1000 to 20000 nM |
| N#CC1(c2ccc(OC(F)(F)F)cc2Cl)CCN(CCCCCc2cccc3c2CN(C2CCC(=O)NC2=O)C3=O)CC1 (centres unmarked) [Example 258, 4-(2-chloro-4-(trifluoromethoxy)phenyl)-1-(5-(2-(2,6-dioxopiperidin-3-yl)-1-oxoisoindolin-4-yl)pentyl)piperidine-4-carbonitrile] | 100 to 1000 nM |
| O=C1CCC(N2Cc3c(CCCCCN4CCc5cc(Br)ccc54)cccc3C2=O)C(=O)N1 (centres unmarked) [Example 112] | < 100 nM |
| O=C1CCC(N2Cc3c(CCCCN4CCN(c5cc(Cl)ccc5Cl)CC4)cccc3C2=O)C(=O)N1 (centres unmarked) [Example 229, 3-(4-(4-(4-(2,5-dichlorophenyl)piperazine-1-yl)butyl)-1-oxoisoindoline-2-yl) piperidine-2,6-dione] | 100 to 1000 nM |
| COc1ccc(N2CCN(CCCCc3cccc4c3CN(C3CCC(=O)NC3=O)C4=O)CC2)cc1 (centres unmarked) [Example 46, 3-(4-(4-(4-(4-methoxyphenyl)piperazine-1-)butyl)-1-oxoisoindoline-2-)piperidine-2,6-dione] | 100 to 1000 nM |
| O=C1CCC(N2Cc3c(CCCCN4CCN(c5ccc(Cl)c(Cl)c5)CC4)cccc3C2=O)C(=O)N1 (centres unmarked) [Example 44, 3-(4-(4-(4-(3,4-dichlorophenyl)piperazine-1-)butyl)-1-oxoisoindoline-2-)piperidine-2,6-dione] | < 100 nM |
| N#CC1(c2ccc(Cl)cc2)CCN(CCCOc2cccc3c2CN(C2CCC(=O)NC2=O)C3=O)CC1 (centres unmarked) [Example 59, 4-(4-chlorophenyl)-1-(3-((2-(2,6-dioxopiperidine-3-)-1-oxoisoindoline-4-)oxy)propyl)piperidine-4-carbonitrile] | < 100 nM |
| O=C1CCC(N2Cc3c(CCCCCN4CCC5(CC4)OCc4ccccc45)cccc3C2=O)C(=O)N1 (centres unmarked) [Example 123, 3-(4-(5-(3H-spiro[isobenzofuran-1,4′-piperidine]-1′-)pentyl)-1-oxoisoindoline-2-)piperidine-2,6-dione] | < 100 nM |
| O=C1CCC(N2Cc3c(OCCNC(=O)Nc4ccc(Cl)c(Cl)c4)cccc3C2=O)C(=O)N1 (centres unmarked) [Example 163] | 100 to 1000 nM |
